Assay results as given in patent publication US20110281852A1 (priority 2010, published 2011).

How the values were obtained:
[1] = tested on: human white preadipocytes (HWP); test: MTT assay, viability of HWP during differentiation; format: cell-based; settings: 15 days of differentiation
Procedure: Cell culture: Cell culture was carried out following the protocol provided by Promocell Company. Briefly, human white preadipocytes (HWP's […]) were cultured at 37° C. in a humidified 5% CO2 atmosphere and grown in a preadipocyte Growth medium (GM) with 100 units/ml penicillin and 100 μg/ml streptomycin until confluence (day 0). Differentiation was induced with preadipocyte Differentiation Medium (DM) for 3 days (days 3), where upon the medium was changed to adipocyte Nutrition Medium (NM) and cultured for 12 days (days 15) (HWP cell line and media were purchased from Promocell, Heidelberg, Germany).

[2] = tested on: human white preadipocytes (HWP); test: Oil-Red-O staining and quantification, HWP differentiation; format: cell-based; settings: 15 days post differentiation induction
Procedure: Cell culture: Cell culture was carried out following the protocol provided by Promocell Company. […] Differentiation was induced with preadipocyte Differentiation Medium (DM) for 3 days (days 3), where upon the medium was changed to adipocyte Nutrition Medium (NM) and cultured for 12 days (days 15) (HWP cell line and media were purchased from Promocell, Heidelberg, Germany).
Oil-Red-O Staining and quantification: Oil-Red-O Staining and quantitative Oil-Red-O Staining were performed as previously reported. Briefly, medium was removed and cells were washed with PBS twice, fixed with 3.7% formalin at room temperature for 30 min, then rinsed with water, added 60% 2-propanol and incubated for 5 minutes, then moved out 2-propanol and stained cells with Oil-Red-O solution (Oil-Red-O store solution (3 mg/ml in pure 2-propanol): water=3:2) at room temperature for 10 min. Then the Oil-Red-O solution was removed and cells were washed 3 times with water. Images were obtained using an Olympus IX70 inverted microscope equipped for phase-contrast microscopy (Olympus, Tokyo, Japan). After staining, the cells were washed twice with 70% ethanol to remove excess stain. Stained oil droplets in the cells were dissolved in 2-propanol containing 4% Nonidet-P40 (Fisher Scientific, Pittsburgh, Pa., USA) and OD values were measured at an absorbance of 490 nm.

GATA-2 = test: Real-Time RT-PCR, GATA-2 mRNA in HWP; format: cell-based, human; settings: day 15
Source text: (§1) Quantitative Real-Time RT-PCR: Real-Time reverse transcriptase polymerase chain reaction (RT-PCR) analysis was used to measure mRNA expression of human genes PPARγ, C/EBPα, GATA-2 and GATA-3 under the control of β-actin. Briefly, total RNA was isolated from HWP following treatment at days 15 with Trizol reagent (Invitrogen, Carlsbad, Calif., USA) according to the manufacturer's instruction. RNA was quantified using absorption of light at 260 and 280 nm, and sample integrity was checked by 1.5% agarose gel electrophoresis. 0.8 μg of total RNA from each sample was used for reverse transcription reaction using the TaqMan Reverse Transcription Reagents (Applied Biosystems, Foster City, Calif., USA) following the Manufacturer's instructions. PCR was done using the SYBR green Master Mix (Applied Biosystems, Foster City, Calif., USA) following the manufacturer's instructions. The temperature cycling conditions of amplification were as follows: an initial step of denaturation at 95° C. for 10 min, 40 cycles of denaturation at 95° C. for 30 s, annealing at 55° C. for 30 s, and elongation at 72° C. for 30 s. Real-Time RT-PCR was performed using Mx3000P Real-Time Thermocyclers (Statagene, La Jolla, Calif., USA). The relative mRNA levels of these genes were calculated by Pfaffl's mathematical method (Pfaffl, M W, Nucleic Acid Res (2001) 29:e45) and normalized with control-treated groups.

GATA-3 [3] = test: Real-Time RT-PCR, GATA-3 mRNA in HWP; format: cell-based, human; settings: day 15
Source text: as §1

PPARγ [4] = test: Real-Time RT-PCR, PPARγ mRNA in HWP; format: cell-based, human; settings: day 15
Source text: as §1

C/EBPα [5] = test: Real-Time RT-PCR, C/EBPα mRNA in HWP; format: cell-based, human; settings: day 15
Source text: as §1

GATA-3 [6] = test: Immunoblot, GATA-3 protein in HWP; format: cell-based, human; settings: day 15
Procedure: (§2) Immunoblot Analysis: Protein expression of GATA-2, GATA-3, PPARγ and C/EBPα were assessed by Western Blot. Total proteins were isolated from HWP treated with compounds or vehicles on day 15. The cells were washed twice with PBS, lysed in a lysis buffer containing HEPES-Tx-PI buffer: […] HEPES, 5 mM EDTA, 350 mM Sucrose, 1 μg/ml leupeptin, 1 μg/ml pepstatin, 1% Triton-X, 1 mM PMSF), processed with a 25G needle and centrifuged at 10,000 rpm for 5 min. Protein concentration was determined using the Micro BCA Protein Assay Kit (Fisher Scientific, Pittsburgh, Pa., USA) according to the manufacturers instructions. 20 μg proteins were loaded and separated by electrophoresis using the BioRad Electrophoretic System (60 V for 1 hour followed by 90 V for 5 hours). The proteins were then transferred to nitrocellulose membranes at 35 V overnight. The membrane was blocked for 1 hour at room temperature in 5% nonfat milk in Tris-buffered saline (TBS), then washed with Tween-20-TBS (TTBS, 0.1% Tween-20) three times (15 min, 5 min, 5 min), followed by incubation with primary antibodies human GATA-2, GATA-3, PPARγ, C/EBPα and β-actin (dilution 1:200) (all antibodies were purchased from Santa Cruz Biotechnology, Santa Cruz, Calif., USA) at room temperature for 2 hours. The membrane was rinsed three times (15 min, 5 min, 5 min), then incubated at room temperature for 1 hour with Horseradish peroxidase-conjugated second antibody (1:10,000). The membrane was then incubated in ECL reagent (GE Healthcare, Piscataway, N.J., USA) for 1 minute. Protein was visualized using the UVP image analysis system (UVP, Upland, Calif., USA).

PPARγ [7] = test: Immunoblot, PPARγ protein in HWP; format: cell-based, human; settings: day 15
Procedure: as §2, with “The membrane was rinsed three times (15 min, 5 min, 5 min), then incubated at room temperature for 1 hour with Horseradish peroxidase-conjugated second antibody (1:10,000). The membrane was then incubated in ECL reagent (GE Healthcare, Piscataway, N.J., USA) for 1 minute. Protein was visualized using the UVP image analysis system (UVP, Upland, Calif., USA).” left out

C/EBPα [8] = test: Immunoblot, C/EBPα protein in HWP; format: cell-based, human; settings: day 15
Procedure: as §2, with “The membrane was rinsed three times (15 min, 5 min, 5 min), then incubated at room temperature for 1 hour with Horseradish peroxidase-conjugated second antibody (1:10,000). The membrane was then incubated in ECL reagent (GE Healthcare, Piscataway, N.J., USA) for 1 minute. Protein was visualized using the UVP image analysis system (UVP, Upland, Calif., USA).” left out

Compound	decrease of cell viability vs control ([1]; 1 μM) [%]	decrease of cell viability vs control ([1]; 2 μM) [%]	decrease of cell viability vs control ([1]; 4 μM) [%]	decrease of cell viability vs control ([1]; 8 μM) [%]	reduction in lipid content ([2]; 1 μM) [%]	reduction in lipid content ([2]; 2 μM) [%]	reduction in lipid content ([2]; 4 μM) [%]	reduction in lipid content ([2]; 8 μM) [%]	GATA-2 mRNA expression vs vehicle (control) group (GATA-2; 1 μM) [fold]	GATA-2 mRNA expression vs vehicle (control) group (GATA-2; 2 μM) [fold]	GATA-2 mRNA expression vs vehicle (control) group (GATA-2; 4 μM) [fold]	GATA-3 mRNA expression vs control group (GATA-3 [3]; 1 μM) [fold]	GATA-3 mRNA expression vs control group (GATA-3 [3]; 2 μM) [fold]	GATA-3 mRNA expression vs control group (GATA-3 [3]; 4 μM) [fold]	change in PPARγ mRNA expression (PPARγ [4])	change in C/EBPα mRNA expression (C/EBPα [5])	GATA-3 protein expression vs controls (GATA-3 [6]; 1 μM) [fold]	GATA-3 protein expression vs controls (GATA-3 [6]; 2 μM) [fold]	GATA-3 protein expression vs controls (GATA-3 [6]; 4 μM) [fold]	PPARγ protein expression, drug-treated vs control cells (PPARγ [7])	other results
COc1ccc2cc3[n+](cc2c1OC)CCc1cc2c(cc1-3)OCO2.[Cl-] [berberine, Berberine (Chloride Form)]	−3.1	1.1	−0.0	1.3	31.9	42.9	60.6	66.4	3.87	4.1	3.8	2.77	2.79	4.43	no significant changes	no significant changes	5.63	5.65	6.43	no significant difference	GATA-2 mRNA expression vs vehicle (control) group (GATA-2; 8 μM): 5.33 fold; GATA-3 mRNA expression vs control group (GATA-3 [3]; 8 μM): 6.77 fold; GATA-3 protein expression vs controls (GATA-3 [6]; 8 μM): 5.37 fold; C/EBPα protein expression, drug-treated vs control cells (C/EBPα [8]): no significant difference
evodiamine	17.7	30.5	34.2	53.6	27.8	46.7	84.6	112.6	1.36	1.5	2.08	2.61	2.7	2.79	no significant changes	no significant changes	4.21	4.95	6.57	no significant difference	decrease of cell viability vs control ([1]; 0.25 μM): 14.1%; decrease of cell viability vs control ([1]; 0.5 μM): 15%; reduction in lipid content ([2]; 0.125 μM): 7.5%; reduction in lipid content ([2]; 0.25 μM): 13.8%; reduction in lipid content ([2]; 0.5 μM): 19%; C/EBPα protein expression, drug-treated vs control cells (C/EBPα [8]): no significant difference
